Measurements as given in patent US12097181B2, “Swine maternal neonatal pheromone” (Texas Tech University System, priority 2019, dated 2024).
“Also recorded” adds a separate entry of the source.

Tested on: piglets
Assay: Preference test: piglet preference for feeders sprayed with maternal semiochemicals
Type: in vivo, Swine (Sus scrofa)
Conditions: for overall preference index (PI) / percentage of time piglets spent interacting with the feeder: feeder sprayed with 5 mL testing solution (4.5 mg skatole and/or 9.0 mg myristic acid) vs mineral oil control feeder, litters 7±2 d of age, two 5-h test days; for piglet preference or aversion for sprayed feeder compared to control: feeder sprayed with testing solution vs mineral oil control
Procedure: Piglets used in this study were from a terminal cross between PIC Camborough genetic line sows and a terminal sire. Litters were housed in conventional slatted floor farrowing crates (1.52 m×2.13 m). All piglets were ear notched, teeth clipped, and injected with iron at 3 days of age. During this day, all males within a litter were also castrated by farm personnel. Prior to the study, piglets had no creep feeder. The preference test was performed in their home farrowing crate. Preference tests were conducted to determine piglet preference for skatole and myristic acid. First, nine litters (105 piglets) were used to evaluate piglet preference toward a solution containing both, skatole and myristic acid (N=9). Once piglet preference for a solution containing both molecules was determined, 8 litters (79 piglets) were used to evaluate piglet preference for skatole (N=8) and another 8 litters (80 piglets) to evaluate piglet preference for myristic acid (N=8) individually. Each litter was tested only once to ensure that piglets were tested at the same age and that they were not previously exposed to a feeder or a semiochemical.
At 7±2 days of age, two three-hole galvanized steel baby pig feeders were placed at each front corner of the farrowing crate for five hours for two consecutive days (FIG. 6). […] The sow was present during each five hours trial. Each feeder contained 100 g of pig pre-starter (MoorMan's ShowTec Prestarter, ADM, Quincy, IL) and was sprayed with either 5 mL of mineral oil (control) or 5 mL of the testing solution. The solution was sprayed on the feeder and not the feed. The 5 mL of the testing solution contained 4.5 mg of skatole and/or 9.0 mg of myristic acid. This concentration was selected based on the estimated concentration of each analyte in 150 g of lactating sow faeces based on GC/MS analysis. On the second testing day, feeder locations were switched to correct for side biases. A single observer following a 30 second scan sampling method, observed the behavior of each piglet in the litter at 30 second intervals to determine the percentage of time piglets spent interacting with each feeder during the five-hour period each testing day. A total of 600 observations were recorded per litter in each testing day. The percentage of time piglets within a litter spent interacting with each feeder was calculated by dividing the number of time piglets were observed interacting with a feeder over the total number of observations. Interacting with the feeder was defined as when piglets were sniffing, touching or licking the area of the feeder sprayed with the solution or eating or rooting the feed. A preference index was calculated for each feeder by dividing the amount of time piglets were observed interacting with a feeder by the sum of the number of times piglets were observed interacting with both feeders.
For each litter (experimental unit), an overall feed intake, preference index, and percentage of time interacted with each feeder was obtained from both testing days. Difference in overall feed intake, preference index, and percentage of time piglets spent interacting with the control and the feeder sprayed with the testing solutions were analyzed using the Wilcoxon-singed ranked test. […] All statistical analyses were performed using SAS 9.4. (SAS Inst., Inc., Cary, NC). A statistically significant difference was based on a P value≤0.05.

Cc1c[nH]c2ccccc12 [Skatole, 3-methylindole]
overall preference index (PI): 0.51 | percentage of time piglets spent interacting with the feeder: 0.54% | piglet preference or aversion for sprayed feeder compared to control: No preference or aversion; also recorded: No preference

CCCCCCCCCCCCCC(=O)O [Myristic acid, Tetradecanoic acid]
overall preference index (PI): 0.47 | percentage of time piglets spent interacting with the feeder: 0.48% | piglet preference or aversion for sprayed feeder compared to control: No preference or aversion; also recorded: No preference
